US20100152129A1 (priority 2008, published 2010)

Legend:
Panc-1 cells [1] = test: Cell cycle analysis by DNA content (propidium iodide, flow cytometry); format: cell-based; conditions: 1 nM alone; control 5.5%
Experimental: Understanding the status of cells cycles G1, S, G2 and M is indicative of the cytotoxic effect including apoptosis and DNA damage of anticancer drugs. In the current study FACS was used to measure the cell cycle stages in Panc 1 cells after exposure to anticancer drugs including drug combination. The synergistic effect of Gemcitabine with […]-00 on Panc-1 cancer cells was analyzed using propidium iodide based cell cycle analysis where total population of cells was sorted as sub G0, G1, S and G2/M populations according to total fluorescent intensity. […]-00 at a final concentration of 60 nM, 240 nM and 480 nM and Gemcitabine at a final concentration of 1 nM, 3 nM and 10 nM were analyzed in single dose and in all possible combinations of the dose range for the Gemcitabine and […]-00. Panc-1 cells were treated with Gemcitabine for 0 to 24 hrs. After 24 hrs the cells were washed twice with plain MEM. Fresh MEM with 10% serum (2 mL/well) was added to the wells, followed by treatment with […]-00 for 24 hrs to 96 hrs. After 96 hrs the treated cells were harvested, fixed, stained with propidium iodide and analyzed for specific cell arrest using DNA content analysis by flow cytometry. Adherent cells were trypsinized and washed with PBS or HBSS without Ca++ and Mg++ containing EDTA pH 8.0 and BSA. They were further isolated, centrifuged and total number of cells were counted and recorded. […]

Panc-1 cells [2] = test: Microarray gene expression analysis; format: cell-based, human; conditions: Panc-1, microarray
Excerpt: The goal of the microarray analysis was to evaluate putative gene expression signatures associated with the in vitro synergistic effect of the combination therapy of Gemcitabine with […]-00 in Panc-1 cells. The time points (3 hrs, 6 hrs, 12 hrs) were chosen to establish early molecular changes in the transcription profile for probable biomarkers and mechanism of action for the combination therapy. Approximately 20 million cells were lysed in Trizol Reagent (Invitrogen Corp, USA) and passed through a 21-gauge needle for 5-10 times before RNA extraction was performed. Total RNA extraction was performed using the RNeasy Mini kit (Qiagen, USA) according to the manufacturer's protocol. The final total RNA was eluted in nuclease-free water and the concentration/purity was determined by Nanodrop spectrophotometer (Thermo Fisher Scientific, Delaware, USA). cDNA generation and labeling: 20 μg of total RNA was reverse transcribed using amino allyl dUTP and oligo dT, the resulting cDNA was indirectly labeled with Cy3/Cy5 dyes (GE Healthcare, USA) using a fluorescent labeling kit (Promega Biosciences, USA). The concentration and dye incorporation of the labeled products were determined by Nanodrop spectrophotometer (Thermo Fisher Scientific, Delaware, USA). Equal amounts of labeled cDNA were denatured at 95° C. for 5 mins, cooled and microfuged at 13200 rpm for 5 mins before hybridization. Array fabrication and hybridization: 70-mer transcript oligonucleotides representing 36,480 human genes was purchased from Operon Biotechnologies (Germany) and spotted onto aminosilane coated glass slides (ArrayIt, USA) by contact printing using a Omnigrid (OG100) spotter (Genomic Solutions Inc, USA). Post printing, the slides were cross-linked with UV light at […], vacuumed, sealed and stored in the dark. The slides were pre-processed for background reduction using Pronto (Promega Life sciences, USA) pre-hyb kit as per the manufacturer's instructions. Hybridization was carried out in the GeneTAC Hybstation (Genomic Solutions Inc, USA) for 18 hrs. The hybridization protocol is as follows: 6 hrs at 42° C. (with agitation), 6 hrs at 35° C. (with agitation), and 6 hrs at 30° C. (with agitation). Post hybridization, the arrays were washed according to the manufacturer's protocol. The slides were dried by centrifugation at 1600 rpm for 5 mins. Scanning and image analysis: Post drying, the slides were scanned in a laser scanner (Genomic Solutions, USA) for Cy3 and Cy5 detection. The PMT settings were adjusted using the auto-exposure feature of the scanner. The TIFF files thus generated were exported to GeneTAC Integrator software (Genomic Solutions, USA) for image analysis. The resultant CSV file containing the annotated genome and the corresponding ratios were further used for data analysis.

Panc-1 cells [3] = test: Protein expression using high content cell imaging system, and efficacy score; format: cell-based; conditions: for Efficacy score: cumulative over proteins of Table 7
Experimental: The data was generated using cell imaging system, where, cells after drug exposure were treated with protein specific antibody, followed by detection markers for the antibody. The images were generated and protein levels quantitated as an indication of drug effect.
Methodology: Panc-1 cells were seeded at a density of 5000 cells per well in 96 well plates and allowed recovery for 24 hrs in 5% CO2 incubator. After recovery, cells were challenged with Gemcitabine (IC30) for 24 hrs. After 24 hrs Gemcitabine was removed and fresh medium was added. […] The combination efficacy was identified against single treatments. At the end of the experiment Panc-1 cells were fixed and permeabilized. All the primary antibodies were added at a concentration according to manufacture protocol. After one hour incubation the cells were washed three times and labeled with secondary antibodies tagged with Dye Light 548 and nucleus was stained with Hoechest3342. After antibody labeling, cells were stained with the Cellomics whole Cell Stain Green to identify the cell's cytoplasmic area. Then all the plates were scanned in Cellomics ArrayScan® VTI HCS Reader. The results were analyzed using software that is designed for measuring the read from the imaging system.
Expression of proteins listed in Table 7 were determined in terms of fluorescence unit obtained by using target activation algorithm from High content imaging system from Cellomics. • Protein expression data expressed as fluorescent units from Table 7 were used to generate expression ratio by comparing drug treatments (individual or combination) against the normal control with no drug treatment. The ratio of expression which is considered as dys-regulation (1.5 fold above or below the range for up-regulation and down regulation respectively) is subtracted from the normal range (±1.5) and is used to measure the efficacy score.
Expression ratio=protein expression during drug treatment/protein expression under normal control.
Efficacy score =Cumulative score (expression ratio−±1.50) for all proteins.

[4] = 6 hours post treatment, control 3
[5] = 36 hours post treatment, control 98

Nc1ccn([C@@H]2O[C@H](CO)[C@@H](O)C2(F)F)c(=O)n1 [Gemcitabine, 2′, 2′-difluorodeoxycytidine]
population of cells in sub G0 (apoptotic cells) (Panc-1 cells [1]): 16.85% | CDK8 gene expression value (log value of intensities) (Panc-1 cells [2]): −0.03 | DICER1 gene expression value (log value of intensities) (Panc-1 cells [2]): −0.16 | DLG5 gene expression value (log value of intensities) (Panc-1 cells [2]): −0.19 | DNAI1 gene expression value (log value of intensities) (Panc-1 cells [2]): 0.03 | FA38A gene expression value (log value of intensities) (Panc-1 cells [2]): −0.70 | FGF5 gene expression value (log value of intensities) (Panc-1 cells [2]): 0.28 | HELLS gene expression value (log value of intensities) (Panc-1 cells [2]): 0.40 | HIST1H2BO gene expression value (log value of intensities) (Panc-1 cells [2]): −0.71 | ID1 gene expression value (log value of intensities) (Panc-1 cells [2]): −0.60 | MKKS gene expression value (log value of intensities) (Panc-1 cells [2]): −0.02 | PPIL4 gene expression value (log value of intensities) (Panc-1 cells [2]): 0.36 | RRM2 gene expression value (log value of intensities) (Panc-1 cells [2]): 0.69 | SLC19A2 gene expression value (log value of intensities) (Panc-1 cells [2]): 0.37 | SNX7 gene expression value (log value of intensities) (Panc-1 cells [2]): 0.27 | TMPRSS3 gene expression value (log value of intensities) (Panc-1 cells [2]): 0.85 | PTN protein expression (Panc-1 cells [3]; 6 hours post treatment, control 1): 6 fluorescence units | GADD45-α protein expression (Panc-1 cells [3]; [4]): 4 fluorescence units | ID1 protein expression (Panc-1 cells [3]; [4]): 7 fluorescence units | P27 protein expression (Panc-1 cells [3]; 6 hours post treatment, control 6): 4 fluorescence units | CDC25B protein expression (Panc-1 cells [3]; 6 hours post treatment, control 7): 8 fluorescence units | CDKN2A protein expression (Panc-1 cells [3]; 6 hours post treatment, control 8): 60 fluorescence units | CCND1 protein expression (Panc-1 cells [3]; 6 hours post treatment, control 74): 83 fluorescence units | GAPDH protein expression (Panc-1 cells [3]; 6 hours post treatment, control 80): 84 fluorescence units | CASP3 protein expression (Panc-1 cells [3]; 6 hours post treatment, control 147): 115 fluorescence units | MMP-1 protein expression (Panc-1 cells [3]; 6 hours post treatment, control 501): 448 fluorescence units | COX15 protein expression (Panc-1 cells [3]; 6 hours post treatment, control 627): 1100 fluorescence units | COX2 protein expression (Panc-1 cells [3]; 6 hours post treatment, control 635): 462 fluorescence units | BAX protein expression (Panc-1 cells [3]; 6 hours post treatment, control 819): 892 fluorescence units | VEGF protein expression (Panc-1 cells [3]; 6 hours post treatment, control 829): 448 fluorescence units | BCL2 protein expression (Panc-1 cells [3]; 6 hours post treatment, control 830): 630 fluorescence units | pRB protein expression (Panc-1 cells [3]; 6 hours post treatment, control 1240): 1318 fluorescence units | Efficacy score (Panc-1 cells [3]; 6 hours): 1.6 | GADD45-α protein expression (Panc-1 cells [3]; 16 hours post treatment, control 13): 70 fluorescence units | CDC25B protein expression (Panc-1 cells [3]; 16 hours post treatment, control 54): 50 fluorescence units | CDKN2A protein expression (Panc-1 cells [3]; 16 hours post treatment, control 64): 57 fluorescence units | P27 protein expression (Panc-1 cells [3]; 16 hours post treatment, control 67): 72 fluorescence units | PTN protein expression (Panc-1 cells [3]; 16 hours post treatment, control 76): 68 fluorescence units | ID1 protein expression (Panc-1 cells [3]; 16 hours post treatment, control 77): 62 fluorescence units | CCND1 protein expression (Panc-1 cells [3]; 16 hours post treatment, control 90): 66 fluorescence units | GAPDH protein expression (Panc-1 cells [3]; 16 hours post treatment, control 100): 98 fluorescence units | CASP3 protein expression (Panc-1 cells [3]; 16 hours post treatment, control 202): 570 fluorescence units | VEGF protein expression (Panc-1 cells [3]; 16 hours post treatment, control 579): 604 fluorescence units | BCL2 protein expression (Panc-1 cells [3]; 16 hours post treatment, control 644): 693 fluorescence units | BAX protein expression (Panc-1 cells [3]; 16 hours post treatment, control 711): 926 fluorescence units | COX15 protein expression (Panc-1 cells [3]; 16 hours post treatment, control 718): 1134 fluorescence units | MMP-1 protein expression (Panc-1 cells [3]; 16 hours post treatment, control 929): 604 fluorescence units | COX2 protein expression (Panc-1 cells [3]; 16 hours post treatment, control 1109): 1151 fluorescence units | pRB protein expression (Panc-1 cells [3]; 16 hours post treatment, control 2583): 1931 fluorescence units | Efficacy score (Panc-1 cells [3]; 16 hours): 7.6 | GADD45-α protein expression (Panc-1 cells [3]; 36 hours post treatment, control 19): 51 fluorescence units | COX2 protein expression (Panc-1 cells [3]; 36 hours post treatment, control 86): 55 fluorescence units | P27 protein expression (Panc-1 cells [3]; 36 hours post treatment, control 96): 67 fluorescence units | CCND1 protein expression (Panc-1 cells [3]; [5]): 75 fluorescence units | CDC25B protein expression (Panc-1 cells [3]; [5]): 29 fluorescence units | GAPDH protein expression (Panc-1 cells [3]; [5]): 59 fluorescence units | ID1 protein expression (Panc-1 cells [3]; [5]): 26 fluorescence units | PTN protein expression (Panc-1 cells [3]; 36 hours post treatment, control 100): 94 fluorescence units | CASP3 protein expression (Panc-1 cells [3]; 36 hours post treatment, control 265): 633 fluorescence units | BAX protein expression (Panc-1 cells [3]; 36 hours post treatment, control 715): 1783 fluorescence units | COX15 protein expression (Panc-1 cells [3]; 36 hours post treatment, control 722): 1990 fluorescence units | VEGF protein expression (Panc-1 cells [3]; 36 hours post treatment, control 1093): 807 fluorescence units | MMP-1 protein expression (Panc-1 cells [3]; 36 hours post treatment, control 1316): 807 fluorescence units | BCL2 protein expression (Panc-1 cells [3]; 36 hours post treatment, control 1410): 698 fluorescence units | CDKN2A protein expression (Panc-1 cells [3]; 36 hours post treatment, control 1441): 1483 fluorescence units | pRB protein expression (Panc-1 cells [3]; 36 hours post treatment, control 2840): 2188 fluorescence units | Efficacy score (Panc-1 cells [3]; 36 hours): 7.4
